Like-named read-outs stand apart in the source and are kept apart here.
Key:
DHS1^B4 = molecular target: T1, DHS1^B4 (Arabidopsis thaliana, UniProt P29976, G244R); test: DHS enzyme assay, recombinant DHS1^B4; format: biochemical
T1 construct: without the predicted plastid transit peptide (amino acid residues; 49-525, 34-507, and 52-527, respectively); made in house; host or cells: E. coli
Protocol: (§1) To generate recombinant DHS proteins the pET28a vectors carrying the A. thaliana DHS1 (AtDHS1), AtDHS2, or AtDHS3 WT sequence without the predicted plastid transit peptide (amino acid residues; 49-525, 34-507, and 52-527, respectively) were expressed in E. coli Rosetta-2 cells and purified using Ni-affinity chromatography, exactly as was conducted previously (9). To generate DHS proteins with individual sota mutations via site-directed mutagenesis, these pET28a plasmid templates were diluted by 500-fold, mixed with 0.04 U/μL Phusion DNA polymerase (Thermo Scientific), 0.2 mM deoxynucleoside triphosphates (dNTPs), 1× Phusion reaction buffer (Thermo Scientific), and 0.5 μM forward and reverse mutagenesis primers (Table 10). The PCR reaction was run using the following protocol: 98° C. for 30 s followed by 20 cycles of 10 s at 98° C., 20 s at 70° C., 4.5 min at 72° C. with a final extension at 72° C. for 10 min. The PCR products were purified using a QIAquick Gel Extraction Kit (QIAGEN), treated with FastDigest DpnI (Thermo Scientific) to digest methylated plasmid template DNA for 20 min at 37° C., and transformed into E. coli cells. The mutagenized pET28a plasmids were sequenced to confirm that no errors were introduced during the mutagenesis process.
(§2) The DHS enzyme assays were conducted using the colorimetric method that we recently described (9). Briefly, the enzyme solution (7.7 μl) containing 50 mM Hepes (pH 7.4) was preincubated with an effector molecule(s) at room temperature for 15 min. For assays using recombinant protein and enzyme fractions isolated from plant leaves, 0.01 to 0.1 μg and approximately 50 μg of proteins were used, respectively. After adding 0.5 μl of 0.1 M dithiothreitol, the samples were further incubated at room temperature for 15 min. During these incubations, the substrate solution containing 50 mM Hepes (pH 7.4), 2 mM MnCl2, 4 mM E4P, and 4 mM PEP at final concentration was preheated at 37° C. The enzyme reaction was started by adding 6.8 μl of the substrate solution, then incubated at 37° C. for 30 min, and terminated by adding 30 μl of 0.6 M trichloroacetic acid. After a brief centrifugation, 5 μl of 200 mM NaIO4 (sodium meta-periodate) in 9 N H3PO4 was added to oxidize the enzymatic product and to incubate at 25° C. for 20 min. To stop the oxidation reaction, 20 μl of 0.75 M NaAsO2 (sodium arsenite), which was dissolved in 0.5 M Na2SO4 and 0.05 M H2SO4, was added and immediately mixed. After 5 min of incubation at room temperature, one-third of the sample solution was transferred to a new tube to be mixed with 50 μl of 40 mM thiobarbituric acid and incubated at 99° C. for 15 min in a thermal cycler. The mixture was added to 600 μl of cyclohexanone in eight-strip solvent-resistant plastic tubes, mixed vigorously, and centrifuged at 4500 g for 3 min to separate water- and cyclohexanone-based layers for the extraction off the developed pink chromophore. The absorbance of the pink supernatant was read at 549 nm with the microplate reader (Infinite 200 PRO, TECAN) to calculate DAHP production with the molar extinction coefficient at 549 nm (ε=549 nm) of 4.5×10^4 M^−1 cm^−1. Reaction mixtures with boiled enzymes were run in parallel and used as negative controls to estimate the background signal.

DHS2^A4 = molecular target: T2, DHS2^A4 (Arabidopsis thaliana, UniProt Q00218, G222S); format: biochemical
T2 construct: without the predicted plastid transit peptide (amino acid residues; 49-525, 34-507, and 52-527, respectively); made in house; host or cells: E. coli
T2 sequence (Q00218 34-507 G222S): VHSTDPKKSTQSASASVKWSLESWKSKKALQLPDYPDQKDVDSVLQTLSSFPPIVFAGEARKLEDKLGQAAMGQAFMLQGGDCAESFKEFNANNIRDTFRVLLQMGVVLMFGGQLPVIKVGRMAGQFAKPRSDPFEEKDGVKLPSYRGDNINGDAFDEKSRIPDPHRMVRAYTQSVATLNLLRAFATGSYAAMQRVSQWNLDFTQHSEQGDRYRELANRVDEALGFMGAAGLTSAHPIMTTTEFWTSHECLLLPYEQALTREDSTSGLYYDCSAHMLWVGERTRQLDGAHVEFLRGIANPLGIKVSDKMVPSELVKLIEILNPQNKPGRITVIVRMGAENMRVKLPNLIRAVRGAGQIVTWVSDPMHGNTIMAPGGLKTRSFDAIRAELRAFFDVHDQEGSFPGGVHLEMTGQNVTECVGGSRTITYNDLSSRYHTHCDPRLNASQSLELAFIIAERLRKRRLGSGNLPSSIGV
Protocol: as §1, §2

[1] = molecular target: T3, Arabidopsis thaliana DHS1 (SEQ ID NO:1) variant DHS1^B4 (sotaB4), G244R (Arabidopsis thaliana, UniProt P29976, G244R); test: DHS enzyme assay with effector, DHS1 sotaB4; format: biochemical
T3 construct: without the predicted plastid transit peptide (amino acid residues; 49-525, 34-507, and 52-527, respectively); made in house; host or cells: E. coli
T3 sequence (P29976 49-525 G244R): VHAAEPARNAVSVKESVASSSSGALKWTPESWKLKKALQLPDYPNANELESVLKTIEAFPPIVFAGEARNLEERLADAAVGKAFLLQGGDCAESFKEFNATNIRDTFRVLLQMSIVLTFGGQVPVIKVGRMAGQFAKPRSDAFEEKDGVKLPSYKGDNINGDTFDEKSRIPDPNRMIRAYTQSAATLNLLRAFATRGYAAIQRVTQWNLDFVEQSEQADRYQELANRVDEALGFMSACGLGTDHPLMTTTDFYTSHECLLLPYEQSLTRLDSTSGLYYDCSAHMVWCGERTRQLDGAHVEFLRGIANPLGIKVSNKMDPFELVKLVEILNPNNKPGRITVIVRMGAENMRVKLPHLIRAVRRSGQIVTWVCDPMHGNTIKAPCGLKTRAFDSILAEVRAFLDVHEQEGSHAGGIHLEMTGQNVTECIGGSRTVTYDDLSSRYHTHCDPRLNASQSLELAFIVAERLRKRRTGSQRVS
Protocol: as §1, §2

[2] = molecular target: T4, Arabidopsis thaliana DHS2 (SEQ ID NO:2) variant DHS2^A4 (sotaA4), G222S (Arabidopsis thaliana, UniProt Q00218, G222S); test: biochemical; format: biochemical
T4 construct: without the predicted plastid transit peptide (amino acid residues; 49-525, 34-507, and 52-527, respectively); made in house; host or cells: E. coli
T4 sequence (Q00218 34-507 G222S): as the sequence (Q00218 34-507 G222S) above
Protocol: as §1, §2

[3] = molecular target: T5, Arabidopsis thaliana DHS1 (AtDHS1), wild type (DHS1^WT), SEQ ID NO:1 (Arabidopsis thaliana, UniProt P29976); conditions: values for AAAs, chorismate, caffeate from Yokoyama et al., Plant Cell, 2021; cited from earlier work
T5 construct: without the predicted plastid transit peptide (amino acid residues; 49-525, 34-507, and 52-527, respectively); made in house; host or cells: E. coli Rosetta-2
T5 sequence (P29976 49-525): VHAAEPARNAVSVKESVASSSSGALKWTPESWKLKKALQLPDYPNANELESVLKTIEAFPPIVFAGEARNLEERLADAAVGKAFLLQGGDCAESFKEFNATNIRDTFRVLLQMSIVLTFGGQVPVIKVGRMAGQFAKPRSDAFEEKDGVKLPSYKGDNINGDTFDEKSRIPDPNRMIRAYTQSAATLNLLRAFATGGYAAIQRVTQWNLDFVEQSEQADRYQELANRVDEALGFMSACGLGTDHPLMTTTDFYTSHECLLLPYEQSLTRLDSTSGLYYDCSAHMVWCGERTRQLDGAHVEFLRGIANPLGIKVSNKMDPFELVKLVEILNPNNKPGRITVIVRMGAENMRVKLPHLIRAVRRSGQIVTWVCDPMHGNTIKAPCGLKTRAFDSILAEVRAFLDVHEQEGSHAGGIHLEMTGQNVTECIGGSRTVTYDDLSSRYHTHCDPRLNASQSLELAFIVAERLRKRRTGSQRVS

[4] = molecular target: T6, Arabidopsis thaliana DHS2 (AtDHS2), wild type (DHS2^WT), SEQ ID NO:2 (Arabidopsis thaliana, UniProt Q00218); conditions: DHS2^WT; values for AAAs, chorismate, caffeate from Yokoyama et al., Plant Cell, 2021; cited from earlier work
T6 construct: without the predicted plastid transit peptide (amino acid residues; 49-525, 34-507, and 52-527, respectively); made in house; host or cells: E. coli Rosetta-2
T6 sequence (Q00218 34-507): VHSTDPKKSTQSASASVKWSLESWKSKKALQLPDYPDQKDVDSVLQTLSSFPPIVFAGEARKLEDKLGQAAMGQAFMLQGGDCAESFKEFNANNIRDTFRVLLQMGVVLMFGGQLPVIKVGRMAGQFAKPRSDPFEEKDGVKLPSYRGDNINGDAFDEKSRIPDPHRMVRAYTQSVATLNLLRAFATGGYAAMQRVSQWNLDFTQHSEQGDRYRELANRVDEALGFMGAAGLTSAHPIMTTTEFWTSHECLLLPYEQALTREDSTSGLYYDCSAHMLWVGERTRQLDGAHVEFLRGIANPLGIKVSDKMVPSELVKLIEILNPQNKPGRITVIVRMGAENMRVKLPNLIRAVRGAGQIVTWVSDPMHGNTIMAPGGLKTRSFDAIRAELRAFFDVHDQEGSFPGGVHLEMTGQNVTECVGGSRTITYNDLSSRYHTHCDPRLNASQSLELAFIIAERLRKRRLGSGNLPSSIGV

[5] = system: Arabidopsis thaliana DHS^WT isoforms (DHS1, DHS2, DHS3), SEQ ID NO:1-3; conditions: reference 9; cited from earlier work
[6] = system: Nicotiana benthamiana leaves; test: Transient expression of Arabidopsis DHS1 WT and B4 in Nicotiana benthamiana, AAA levels by LC-MS; format: in vivo; conditions: two days after inoculation
Protocol: Vectors for plant expression were made as previously described using MoClo modular cloning technology. For transient expression in Nicotiana benthamiana, gene expression of the protein coding sequence (CDS) of DHS1 WT and B4 were driven by a 1987-bp sequence obtained from the upstream region of the ubiquitin 10 gene (At4g05320) from Arabidopsis. In addition, a synthetic hemagglutinin (HA) tag comprising 6 repeats of the sequence […] (SEQ ID NO:75) was added to the C-terminus of the protein for quantification of protein expression using an anti-HA antibody. Vectors containing the promoter, CDS, epitope HA-tag, and a terminator were transformed into Agrobacterium tumefaciens via electroporation.
Positive transformants were used to perform transient expression in Nicotiana benthamiana. Single colony bacteria were grown in LB media supplemented with kanamycin (100 mg/L) and gentamycin (100 mg/L) at 28° C. with constant agitation at 200 rpm. […] After complete resuspension, bacteria concentration was evaluated by spectrometry using optical density (OD) at 600 nm. […]
Each inoculated leaf was separated into 4 quadrants, and each quadrant received a different bacteria solution containing a different vector. […] Samples for metabolite analysis were collected two days after inoculation and processed as previously described for quantification of aromatic amino acids.

plant DHSs = conditions: prior reports (9); cited from earlier work
DHS1^WT = molecular target: T7, DHS1^WT (Arabidopsis thaliana, UniProt P29976); test: DHS enzyme assay (colorimetric), recombinant DHS1^WT; format: biochemical
T7 construct: without the predicted plastid transit peptide (amino acid residues; 49-525, 34-507, and 52-527, respectively); made in house; host or cells: E. coli Rosetta-2
T7 sequence (P29976 49-525): as the sequence (P29976 49-525) above
Protocol: as §1, §2

DHS2^WT = molecular target: T8, DHS2^WT (Arabidopsis thaliana, UniProt Q00218); test: DHS enzyme assay, recombinant DHS2^WT; format: biochemical; conditions: FIG. 2D
T8 construct: without the predicted plastid transit peptide (amino acid residues; 49-525, 34-507, and 52-527, respectively); made in house; host or cells: E. coli Rosetta-2
T8 sequence (Q00218 34-507): as the sequence (Q00218 34-507) above
Protocol: as §1, §2

[7] = system: Arabidopsis Col-0 WT plants; test: Plant growth on media containing ILA or IPA (feeding); format: in vivo, Arabidopsis thaliana; conditions: IPA <10 μM; ILA 0-1000 μM in media
Text: (A) A structural model of A. thaliana DHS2 (AtDHS2, purple) generated from the P. aeruginosa DHS (PaDHS, white) with Trp (magenta) bound. Residues corresponding to the sota mutations mapped onto the AtDHS2 model are highlighted in yellow. (B) Selected regions of the amino acid sequence alignment of PaDHS and AtDHS enzymes, with the positions of the sota mutations indicated by blue, red, green arrows for AtDHS1, AtDHS2, and AtDHS3, respectively. […] Data are means±SEM (n=3). (D) Screening of AAAs and AAA-derived metabolites as potential inhibitors of DHS1^WT and DHS2^WT. *P≤0.05, **P≤0.01, ***P≤0.001, and ****P≤0.0001 denote significant differences by one-way ANOVA with Dunnett's test against the corresponding “No effector” samples. Data are means±SEM (n=3). The dotted horizontal lines separate four sets of independent experiments. […] Data are means±SEM (n=3). (G) Plant picture (left) and fresh weight measurement (right) of 3-week-old Col-0, sotaB4, and sotaA4 mutants (Col-0 background) on the media containing ILA at 0, 250, 500, or 1000 μM. *P≤0.05 and **P≤0.01 denote significant differences by one-way ANOVA with Dunnett's test against the corresponding Col-0 samples (n=12 to 16 independent plant samples). […]

T1 sequence (P29976 49-525 G244R): as the sequence (P29976 49-525 G244R) above

C=C(O[C@@H]1C=C(C(=O)O)C=C[C@H]1O)C(=O)O [Chorismate]
inhibition of DHS1^B4 activity (DHS1^B4): still strongly inhibited
IC50 (DHS1^B4; recombinant enzyme, read-out: IC50 of effector molecule on DHS1^B4): 25.3 µM
inhibition of DHS2^A4 activity (DHS2^A4; effector up to 1 mM): still inhibited
IC50 (DHS2^A4; recombinant enzyme, read-out: IC50 of effector molecule on DHS2^A4): 102 µM
IC50 [1]: 0.0253 mM
inhibition of DHS1^B4 ([1]; FIG. 19): still strongly inhibited
IC50 [2]: 101 µM
inhibition of DHS2^A4 ([2]; up to 1 mM Tyr, Trp (FIG. 2C), shikimate, arogenate, prephenate at 1 mM (FIG. 21A)): still inhibited
IC50 [3]: 14.6 µM
IC50 [4]: 81 µM
inhibition of all Arabidopsis DHS isoforms [5]: strongly inhibit all Arabidopsis DHS isoforms

Arabidopsis DHS1 sotaB4 mutant: Arabidopsis DHS1 enzyme with the sotaB4 mutation (G244R)
production of tyrosine and phenylalanine in the tobacco plant [6]: significantly elevated production

O=C[C@H](O)[C@H](O)COP(=O)(O)O [E4P, erythrose-4-phosphate]
Km for E4P (plant DHSs): high

O=C(O)C(O)Cc1c[nH]c2ccccc12 (stereo not drawn) [ILA, Indole-3-lactate]
effect on DHS1 activity (effector screening) (DHS1^WT; FIG. 2D): reduced the activity
IC50 (DHS1^WT; recombinant enzyme, read-out: IC50 of effector molecule on DHS1^WT): 210 µM
effect on DHS2 activity (effector screening) (DHS2^WT): reduced the activity
IC50 ([1]; DHS1^B4, 4 mM E4P, 4 mM PEP, pH 7.4, 37° C.): 2.88 mM
effect of feeding on plant growth [7]: growth inhibition
